The values below come from patent US20040082664A1, “Derivatives of hydroxyphenyl, a method for preparing thereof and their pharmaceutical composition” (priority 2002, published 2004).

A value given as a limit tells only on which side of the number the result lay.

For one experiment, the system named is IL-2 promoter. Briefly: IL-2 promoter luciferase reporter assay in anti-CD3 activated Jurkat cells. The note with it: Homo sapiens, TCR-induced (anti-CD3) IL-2 promoter luciferase, 2 h pre-incubation. The class given is cell-based. Here is the method:
In order to confirm whether the compounds of the invention can pass through a cell membrane and inhibit the expression of IL-2 gene leading to T-cell proliferation, the present inventors firstly confirmed T-cell activity by detecting the activity of the luciferase fused on the downstream of IL-2 promoter.
To investigate the activity of IL-2 promoter, Jurkat cells (1×10^6) were transfected with a IL-2 reporter plasmids using Superfect™ (Qiagen Inc.). After 24 hours of transfection, Jurkat cells were pre-incubated with compounds of various concentrations (1 uM-50 uM) for 2 hours and further cultured on 35mm plate pre-coated with 5 ug/ml of anti-CD3 antibody, resulting in T cell activation. The luciferase activity was measured using Berthold luminometer LB953. The IC50 (50% inhibition concentration) of the compounds of the invention on TCR-induced IL-2 promoter activation are shown in Table 2.

The target in another experiment is T1, GST-fused lck SH2 domain (Homo sapiens, UniProt P06239).
T1 construct: GST (Glutathione transferase)-fused lck SH2 domain
Briefly: Inhibition of in vitro binding of lck SH2 domain to its cognate pYEEI peptide (BIAcore 2000). The note with it: IC50 class for inhibition of GST-lckSH2 binding to immobilized biotinylated […]pYEEIPI peptide; read-out: BOND DEGREE WITH SH2 OF 1ck. As to the method: The present inventors investigated the inhibition activity of phenyl derivatives on the interaction of GST (Glutathione transferase)-fused lck SH2 domain and a peptide […]pYEEIPI (comprising the sequence PYEEI, a cognate peptide of Lck SH2) by using a real time sensorgram (BIAcore 2000).
At first, the biotinylated peptide was fixed on the surface of BIAcore analysis apparatus and then GST-lckSH2 protein was injected over the surface of the immobilized peptides. The binding of GST-lck SH2 with the peptide is represented as the resonance units (referred as “RU” hereinafter) and 1,000 RU corresponds to a change in surface concentration of 1 ng/mm^2. The binding of GST-lck with the fixed peptide causes the change of refractory index, leading to the increase of RU. In the mean time, when the binding of GST-lck with the fixed peptide is inhibited, RU decreases. Those results are represented in Table 1.

For experiment [1], the system named is collagen-induced rheumatoid arthritis. Briefly: Inhibition of collagen-induced rheumatoid arthritis in DBA1/LacJ mice. The class given is in vivo, mouse. Details: key: sum of 4 leg scores (0-4 each), max 16. The note with it: 50 mg/kg/day i.p. daily; day 15 after treatment (day 36 after primary immunization); sum of scores of four legs, maximum 16; mean ± standard deviation. As to the method: After 2 weeks, booster immunization was carried out with 50 μg C II/IFA. From the 3rd week after primary immunization, compounds of the present invention were injected daily into peritoneal cavities of 6-8 mice per group for 15-20 days.
The vehicle control groups were injected daily with 100 μl of 5% ethanol-olive oil mixture in total 15-20 times. Widely used anti-rheumatic drug, Methotrexate, was dissolved in PBS and then injected to mice at 1 mg/kg/day every other day in total 8-10 times. Meanwhile, the compounds of the invention were dissolved in ethanol and then mulsified in olive oil, in which the final ethanol concentration was adjusted to 5% and the compounds of this invention was 50 mg/kg/day.
From the 3rd week after primary immunization, the extent of edema and the joint swelling was monitored everyday to determine arthritic index. Arthitic index is the sum of the arthritic scores of all 4 legs and, therefore, maximum arthritis index of 16 can be achieved (e.g., [4 (maximum arthritic score)/leg]×[4 legs/mouse]=16 (maximum arthritis index/mouse)). […] was presented by the mean arthritis index±standard deviation of each mouse group.

The test system of a further experiment is skin allograft rejection. Briefly: Inhibition of skin allograft rejection (Balb/c tail skin grafted onto C57BL/6 mouse). The class given is in vivo. The note with it: 100 mg/kg/day into abdominal cavity from day of transplantation until complete rejection. As to the method: For the experiment, allogeneic Balb/c(H-2d) mouse-tail skin was grafted onto C57BL/6(H-2b) mouse. Generally 7-8 mice were assigned to each group. All the phenyl derivatives were dissolved in 100% ethanol, mixed with olive oil, and adjusted to the final concentration of ethanol therein less than 5%. […] Meanwhile, for the group of untreated mice, an olive oil-ethanol mixture was administered as a control. The grafted skin was monitored daily after the removal of the bandage on days 7-9. Rejection was defined as more than 80% necrosis of the graft epithelium.

T1 sequence (P06239 127-224 limits assumed): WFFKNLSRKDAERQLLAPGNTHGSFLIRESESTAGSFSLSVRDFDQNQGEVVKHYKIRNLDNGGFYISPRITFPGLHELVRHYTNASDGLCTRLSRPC

As for `O=C(O)[C@H](Cc1ccc(O)c(O)c1)NC(=S)/C=C/c1ccc(O)c(O)c1` [Example 23, 3-(3,4-dihydroxy-phenyl)-(S)-2-[3-trans-(3,4-dihydroxy-phenyl)-thioacryloylamino]-propionic acid], the results for the IC50 in the experiment with IL-2 promoter and at GST-fused lck SH2 domain were 16 µM and 25 to 50 µM, respectively. The Arthritis index in experiment [1] came to 6.7 ± 0.8. The “Survival time of skin graft tissue (days ± variance)” value (“Survival time of skin graft tissue” for short) with skin allograft rejection amounted to 13.2 ± 0.8 days.

In the case of `CCCOC(=O)[C@H](Cc1ccc(O)c(O)c1)NC(=S)/C=C/c1ccc(O)c(O)c1` [Example 25, 3-(3,4-dihydroxy-phenyl)-(S)-2-[3-trans-(3,4-dihydroxy-phenyl)-thioacryloylamino]-propionic acid propyl ester], the IC50 is 9.7 µM in the experiment with IL-2 promoter and 10 to 25 µM on GST-fused lck SH2 domain. Besides, in experiment [1], the Arthritis index came out at 5.7 ± 0.4. Further, the “Survival time of skin graft tissue” value in the experiment with skin allograft rejection is on record as 14.8 ± 0.6 days.

Regarding `CC(C)(C)OC(=O)[C@H](Cc1ccc(O)c(O)c1)NC(=S)/C=C/c1ccc(O)c(O)c1` [Example 27, 3-(3,4-dihydroxy-phenyl)-(S)-2-[3-trans-(3,4-dihydroxy-phenyl)-thioacryloylamino]-propionic acid tert-butyl ester], the IC50 in the experiment with IL-2 promoter was 20.1 µM; on GST-fused lck SH2 domain, 25 to 50 µM. For the same compound, in experiment [1], the Arthritis index is given as 6.6 ± 1.1. In addition, the “Survival time of skin graft tissue” value in the experiment on skin allograft rejection worked out at 12.3 ± 0.6 days.

On to `NC(=O)[C@H](Cc1ccc(O)c(O)c1)NC(=S)/C=C/c1ccc(O)c(O)c1` [Example 28, 3-(3,4-dihydroxy-phenyl)-(S)-2-[3-trans-(3,4-dihydroxy-phenyl)-thioacryloylamino]-propioneamide], for which the values for the IC50 in the experiment with IL-2 promoter and at GST-fused lck SH2 domain were 14.1 µM and 10 to 25 µM, respectively. In addition, the Arthritis index in experiment [1] worked out at 5.8 ± 0.6. Besides, the “Survival time of skin graft tissue” value with skin allograft rejection is on record as 13.9 ± 0.9 days.

Consider `COC(=O)[C@H](Cc1ccc(O)c(O)c1)N(C)C(=O)/C=C/c1ccc(O)c(O)c1` [Example 36, 3-(3,4-dihydroxy-phenyl)-(S)-2-{[3-trans-(3,4-dihydroxy-phenyl)-acryloyl]-methyl-amino}-propionic acid methyl ester], for which the IC50 was 15 µM in the experiment with IL-2 promoter and 25 to 50 µM at GST-fused lck SH2 domain. Further, the Arthritis index in experiment [1] is 6.1 ± 1.9. In addition, the “Survival time of skin graft tissue” value with skin allograft rejection is 12.9 ± 0.9 days.

Regarding `CCCOC(=O)[C@H](Cc1ccc(O)c(O)c1)N(C)C(=O)/C=C/c1ccc(O)c(O)c1` [Example 39, 3-(3,4-dihydroxy-phenyl)-(S)-2-{[3-trans-(3,4-dihydroxy-phenyl)-acryloyl]-methyl-amino}-propionic acid propyl ester], the results for the IC50 in the experiment on IL-2 promoter and on GST-fused lck SH2 domain were 9.7 µM and 10 to 25 µM, respectively. In addition, the Arthritis index in experiment [1] is recorded as 5.7 ± 1.2. In addition, in the experiment on skin allograft rejection, the “Survival time of skin graft tissue” value stood at 14.1 ± 1.2 days.

In the case of `CN(C(=O)/C=C/c1ccc(O)c(O)c1)[C@@H](Cc1ccc(O)c(O)c1)C(=O)OC(C)(C)C` [Example 41, 3-(3,4-dihydroxy-phenyl)-(S)-2-{[3-trans-(3,4-dihydroxy-phenyl)-acryloyl]-methyl-amino}-propionic acid tert-butyl ester], the IC50 in the experiment on IL-2 promoter was 15.7 µM; at GST-fused lck SH2 domain it was 25 to 50 µM. In experiment [1], this compound returned an Arthritis index of 6.7 ± 1.6. In the experiment on skin allograft rejection, the “Survival time of skin graft tissue” value came to 13.7 ± 0.6 days.

Take `CN(C(=O)/C=C/c1ccc(O)c(O)c1)[C@@H](Cc1ccc(O)c(O)c1)C(N)=O` [Example 42, N-[l-carbamoyl-2-(3,4-dihydroxy-phenyl)-ethyl]-(S)-3-trans-(3,4-dihydroxy-phenyl)-N-methyl-acrylamide]: the IC50 is 14.6 µM in the experiment on IL-2 promoter and 10 to 25 µM on GST-fused lck SH2 domain. In experiment [1], this compound yielded an Arthritis index of 5.1 ± 1.9. In addition, the “Survival time of skin graft tissue” value in the experiment on skin allograft rejection was 14.3 ± 0.9 days.

In the case of `O=C(/C=C/c1ccc(O)c(O)c1)NCCc1ccc(O)c(O)c1` [Example 43, 3-(3,4-dihydroxy-phenyl)-N-[2-trans-(3,4-dihydroxy-phenyl)-ethyl]-acrylamide], the IC50 in the experiment with IL-2 promoter was 21.2 µM; on GST-fused lck SH2 domain, 25 to 50 µM. This compound also displayed an Arthritis index in experiment [1] of 6.0 ± 1.9. Further, in the experiment with skin allograft rejection, the “Survival time of skin graft tissue” value is on record as 13.1 ± 0.9 days.

In the case of `CN(CCc1ccc(O)c(O)c1)C(=O)/C=C/c1ccc(O)c(O)c1` [Example 44, 3-(3,4-dihydroxy-phenyl)-N-[2-(3,4-dihydroxy-phenyl)-ethyl]-N-methyl-acrylamide], the IC50 was 17.4 µM in the experiment with IL-2 promoter and 25 to 50 µM at GST-fused lck SH2 domain. For the same compound, in experiment [1], the Arthritis index was found to be 6.8 ± 1.0. Moreover, the “Survival time of skin graft tissue” value in the experiment on skin allograft rejection stood at 12.5 ± 0.9 days.

Turning to `O=C(/C=C/c1ccc(O)c(O)c1)N[C@H](Cc1ccc(O)cc1)C(=O)O` [Example 46, (R)-2-[trans-3-(3,4-dihydroxy-phenyl)-acryloylamino]-3-(4-hydroxy-phenyl)-propionic acid], the results for the IC50 in the experiment with IL-2 promoter and at GST-fused lck SH2 domain were 19 µM and 25 to 50 µM, respectively. The Arthritis index in experiment [1] is recorded as 6.1 ± 0.7. The “Survival time of skin graft tissue” value in the experiment on skin allograft rejection amounted to 11.9 ± 0.9 days.

Turning to `COC(=O)[C@H](Cc1ccc(O)cc1)NC(=O)/C=C/c1ccc(O)c(O)c1` [Example 47, (S)-2-[trans-3-(3,4-dihydroxy-phenyl)-acryloylamino]-3-(4-hydroxy-phenyl)-propionic acid methyl ester], the IC50 was 21 µM in the experiment with IL-2 promoter and 25 to 50 µM on GST-fused lck SH2 domain. Besides, the Arthritis index in experiment [1] is 6.9 ± 1.1. In addition, the “Survival time of skin graft tissue” value in the experiment with skin allograft rejection is reported as 11.7 ± 1.0 days.

As to `O=C(/C=C/c1ccc(O)c(O)c1)N[C@@H](Cc1ccc(O)cc1)C(=O)O` [Example 48, (S)-2-[trans-3-(3,4-dihydroxy-phenyl)-acryloylamino]-3-(4-hydroxy-phenyl)-propionic acid], the IC50 with IL-2 promoter is 22.3 µM; on GST-fused lck SH2 domain, 25 to 50 µM. This compound also came in with an Arthritis index in experiment [1] of 7.1 ± 0.4. In addition, the “Survival time of skin graft tissue” value in the experiment with skin allograft rejection amounted to 12 ± 1.6 days.

In the case of `COC(=O)C(Cc1ccc(O)c(O)c1)NC(=O)NCc1ccc(O)c(O)c1` (centres unmarked) [Example 49, 2-[3-(3,4-dihydroxy-benzyl)-ureido]-3-(3,4-dihydroxy-phenyl)-propionic acid methyl ester], the values for the IC50 with IL-2 promoter and on GST-fused lck SH2 domain were 20.4 µM and 10 to 25 µM, respectively. In experiment [1], the Arthritis index amounted to 5.1 ± 0.9. Moreover, in the experiment with skin allograft rejection, the “Survival time of skin graft tissue” value amounted to 13 ± 1.5 days.

For the compound `COC(=O)C(Cc1ccc(O)c(O)c1)NC(=O)Cc1ccc(O)c(O)c1` (centres unmarked) [Example 50, 3-(3,4-dihydroxy-phenyl)-2-[2-(3,4-dihydroxy-phenyl)-acetylamino]-propionic acid methyl ester], the results for the IC50 in the experiment on IL-2 promoter and at GST-fused lck SH2 domain were 18.6 µM and under 10 µM, respectively. Also, the Arthritis index in experiment [1] is given as 4.8 ± 1.1. Moreover, in the experiment on skin allograft rejection, the “Survival time of skin graft tissue” value is given as 12.8 ± 0.9 days.

For the compound `COC(=O)C(Cc1ccc(O)c(O)c1)NC(=O)c1ccc(O)c(O)c1` (centres unmarked) [Example 51, 2-(3,4-dihydroxy-benzoylamino)-3-(3,4-dihydroxy-phenyl)-propionic acid methyl ester], the IC50 is 17.5 µM in the experiment with IL-2 promoter and under 10 µM on GST-fused lck SH2 domain. The compound further returned an Arthritis index in experiment [1] of 5.5 ± 0.5. Moreover, in the experiment with skin allograft rejection, the “Survival time of skin graft tissue” value is reported as 12.5 ± 1.1 days.

With `COC(=O)[C@@H](Cc1ccc(O)c(O)c1)NC(=O)CCc1ccc(O)c(O)c1` [Example 52, 3-(3,4-dihydroxy-phenyl)-2-[3-(3,4-dihydroxy-phenyl)-propionylamino]-propionic acid methyl ester], the IC50 with IL-2 promoter was 21 µM; at GST-fused lck SH2 domain, 10 to 25 µM. Further, in experiment [1], the Arthritis index is recorded as 4.0 ± 0.7. In addition, the “Survival time of skin graft tissue” value in the experiment on skin allograft rejection came to 13.4 ± 1.2 days.
